Laboratory results published in PubChem BioAssay (NCI).
Where “and” joins values, the source holds several entries; their conditions need not be identical. Equal entries are not always repeated.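 The compound was tested at five concentrations on cells cultured in 96-well plates, with a 48-hour exposure period. The concentration for 50% growth inhibition is given as GI50. TGI: concentration producing complete growth inhibition.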

Tests used:
Assay in all cases: growth of human tumour cells (NCI), 48 h
OVCAR-8 ovarian = test system: OVCAR-8 ovarian
U251 CNS = test system: U251 CNS
A498 renal = test system: A498 renal
HCC-2998 colon = test system: HCC-2998 colon
IGROV1 ovarian = test system: IGROV1 ovarian
SR leukemia = test system: SR leukemia
BT-549 breast = test system: BT-549 breast
SF-295 CNS = test system: SF-295 CNS
HL-60(TB) leukemia = test system: HL-60(TB) leukemia
MDA-MB-435 = test system: MDA-MB-435

| SMILES | GI50 (OVCAR-8 ovarian) | TGI (OVCAR-8 ovarian) [µM] | GI50 (U251 CNS) | TGI (U251 CNS) [µM] | GI50 (A498 renal) | TGI (A498 renal) [µM] | GI50 (HCC-2998 colon) | TGI (HCC-2998 colon) [µM] | GI50 (IGROV1 ovarian) | TGI (IGROV1 ovarian) [µM] | GI50 (SR leukemia) | TGI (SR leukemia) [µM] | GI50 (BT-549 breast) [µM] | TGI (BT-549 breast) [µM] | GI50 (SF-295 CNS) | TGI (SF-295 CNS) [µM] | GI50 (HL-60(TB) leukemia) | TGI (HL-60(TB) leukemia) | GI50 (MDA-MB-435) | TGI (MDA-MB-435) |
| --- | --- | --- | --- | --- | --- | --- | --- | --- | --- | --- | --- | --- | --- | --- | --- | --- | --- | --- | --- | --- |
| COc1ncc(-c2ccc3nccc(C#CCN4CCN(S(C)(=O)=O)CC4)c3c2)cc1NS(=O)(=O)c1ccc(F)cc1F | 0.256 µM | 11.7 | 0.211 µM | 1.75 | 0.048 µM | 0.309 | 0.0635 µM | 1.25 | < 0.01 µM | 0.0333 | 0.222 µM | 27 | 0.039 | 0.874 | 0.0684 µM | 1.17 | 0.0257 µM | 1.81 µM | 0.0915 µM | 1.26 µM |
| CC1(C)OC2C(CO)OC(n3ccc(N)nc3=O)C2O1 (stereo not drawn) | – | > 100 | – | > 100 | – | > 100 | – | > 100 | – | > 100 | – | > 100 | – | > 100 | – | > 100 | – | > 100 µM | – | > 100 µM |
| CN(CSc1ccc(Cl)cc1)c1ccc(CSc2ccc(Cl)cc2)cc1 | 13.6 µM | 39.8 | 6.87 µM | 23.5 | 1.59 µM | 9.61 | 4.81 µM | 18.3 | – | – | 1.77 µM | 7.58 | 1.16 | 3.6 | 2.86 µM | 13.7 | 1.57 µM | 32 µM | 2.68 µM | 11.9 µM |
| FC(F)(F)c1ccc(-c2ncc(-c3ccc(C(F)(F)F)cc3)c(NCc3cc(C(F)(F)F)cc(C(F)(F)F)c3)n2)cc1 | 3.8 µM | > 100 | 3.57 µM | > 100 | 2.31 µM | 8.75 | 5.76 µM | 46.7 | 9.02 µM | > 100 | 5.07 µM | > 100 | 7.91 | > 100 | 2.94 µM | 28.3 | 4.79 µM | 36.2 µM | 4.23 µM | > 100 µM |
| CCOc1cc(/C=C/C(=O)C(C(=O)/C=C/c2ccc(OC(=O)CNc3nnc(C)s3)c(OCC)c2)C(=O)CNc2nnc(C)s2)ccc1OC(=O)CNc1nnc(C)s1 | 3.43 µM | 14.4 | 0.976 µM | 2.89 | 1.8 µM | 3.64 | 1.69 µM | 3.33 | – | – | 0.236 µM | 1.45 | 1.98 | 5.33 | 3.08 µM | 10.7 | 0.554 µM | 3.47 µM | 1.53 µM | 8.7 µM |
| COC(=O)[C@@H](C)C[C@H](Cc1ccccc1)NC(=O)c1csc([C@@H](C[C@H](C(C)C)N(C)C(=O)C2(NC(=O)[C@H]3CCCCN3C)CCC2)OC(C)=O)n1 | 0.0168 µM and 0.00626 µM | > 25 | 0.00545 µM and 0.00627 µM | > 25 | 0.0164 µM and 0.00548 µM | 0.0874 | 0.00501 µM and 0.00628 µM | > 25 | 0.000863 µM and 0.0025 µM | > 25 | 0.000495 µM and 0.0025 µM | > 25 | 0.0025 | 0.0157 | 0.0169 µM and 0.00404 µM | > 25 | 0.00116 µM and < 0.0025 µM | 0.00569 µM and < 0.0025 µM | 0.000325 µM and < 0.0025 µM | 0.00179 µM and < 0.0025 µM |
| CCCCN(CC)CCCCCCCCCCN1CCCc2cc(OC)ccc21 | 3.92 µM | 13.2 | 2.93 µM | 7.56 | 2.36 µM | 9.54 | 2.32 µM | 6.38 | 3.18 µM | 12.9 | 1.94 µM | 5.56 | 3.63 | 12.5 | 1.8 µM | 3.72 | 2.07 µM | 5 µM | 2.41 µM | 7.06 µM |
| CC(C)OCc1cc(CN2CCN(c3cccc(Cl)c3)CC2)c(O)c2ncccc12 | 0.367 µM | 11.6 | 0.423 µM | 11.9 | 0.871 µM | 8.25 | 0.92 µM | 11.3 | 0.621 µM | 16.6 | 0.403 µM | 10.2 | 3.26 | 19.8 | 1.07 µM | 11.6 | 0.388 µM | 2.84 µM | 0.923 µM | 11.4 µM |
| NCCCNc1nc2ccc(Cl)cc2c2c(=O)c3cc(F)ccc3sc12 | 3.24 µM | 15.1 | – | – | 6.1 µM | 21 | 1.89 µM | 4.38 | 1.91 µM | 5.1 | 2.1 µM | 5.37 | 14.3 | 29.6 | 12 µM | 26.5 | 3.13 µM | 10.7 µM | 1.93 µM | 4.2 µM |
| O=C(O)CNCCc1ccccc1 | – | > 100 | – | > 100 | – | > 100 | – | – | – | > 100 | – | > 100 | – | > 100 | – | > 100 | – | > 100 µM | – | > 100 µM |
| C=C(CN1CCN(c2ccccc2C(F)(F)F)CC1)c1ccc(C(=O)Nc2ccccc2N)cc1 | 3.84 µM | > 100 | 4.64 µM | > 68.1 | 5.36 µM | 31.8 | 3.83 µM | 13.9 | 6.03 µM | > 100 | 2.36 µM | 5.95 | 2.67 | 14 | 5.98 µM | 42.9 | 0.037 µM | 0.756 µM | 2.72 µM | > 22.6 µM |
| Cc1cc(C(O)(c2ccc(Nc3ccccc3)cc2)c2ccc(Nc3ccc(S(=O)(=O)O)cc3)cc2)ccc1N (stereo not drawn) | 1.08 µM | 3.57 | 0.772 µM | 2.05 | 1.58 µM | 3.51 | 1.23 µM | 2.58 | 1.52 µM | 3.4 | 0.713 µM | > 100 | 1.84 | 5.61 | 1.69 µM | 3.25 | 1.66 µM | 6.12 µM | 1.28 µM | 2.69 µM |
| CS(=N)(=O)CCC(N)P(=O)(O)O (stereo not drawn) | – | > 100 | – | > 100 | – | > 100 | – | > 100 | – | > 100 | – | > 100 | – | > 100 | – | > 100 | – | > 100 µM | – | > 100 µM |
